Residues, ends and D or L forms follow the SMILES beside them.
Biological target: IL-17RA/IL17RC dimerization induced by IL-17A (Homo sapiens, UniProt Q16552)
Assay: IL-17RA/IL17RC dimerization assay in response to IL-17A (PathHunter Cytokine Receptor Assay)
Format: cell-based
Details: IL-17A at EC80; read-out: IC50 in IL-17RA/IL7RC dimerization assay
Procedure: The peptides of Table 7 were tested for their ability to inhibit the binding of IL-17A to its receptor and the subsequent interaction of IL-17RA and IL17RC.
Interleukin receptor RA and RC dimerization assay (DiscoverX) was used to measure the interaction of the receptor chains IL-17RA and IL17RC upon activation by IL-17A in the absence or presence of the peptides of Table 7.
In the PathHunter® Cytokine Receptor Assay, one cytokine receptor chain is tagged with a small peptide epitope ProLink (PK) and the other chain is tagged with Enzyme Acceptor (EA). Ligand binding induces dimerization of the two receptors, facilitating complementation of PK and EA fragments. This interaction generates an active unit of b-galactosidase, which is detected using a chemiluminescent substrate. PathHunter cell lines were expanded from freezer stocks according to standard procedures. Cells were seeded in a total volume of 20 μL into white walled, 384-well microplates and incubated for the appropriate time prior to testing. For agonist activity inhibition, cells were incubated with sample to induce response. Intermediate dilution of sample stocks was performed to generate 5× sample in assay buffer. 5 μL of 5× sample was added to cells and incubated at 37° C. or room temperature for 60 minutes. Vehicle concentration was 1%. 5 μL of 6×EC80 agonist (IL-17A) in assay buffer was added to the cells and incubated at 37° C. for 6 to 16 hours depending on the assay. 1. […] For some assays, activity was detected using a high sensitivity detection reagent (PathHunter Flash Kit) to improve assay performance. In these assays, an equal volume of detection reagent (25 or 30 uL) was added to the wells, followed by a one hour incubation at room temperature. Microplates were read following signal generation with a PerkinElmer Envision™ instrument for chemiluminescent signal detection. Compound activity was analyzed using CBIS data analysis suite (ChemInnovation, CA). % Inhibition=100%×(1−(mean RLU of test sample−mean RLU of vehicle control)/(mean RLU of EC80 control−mean RLU of vehicle control)).

IL-17RA/IL17RC dimerization induced by IL-17A, sequence (Q16552 24-155): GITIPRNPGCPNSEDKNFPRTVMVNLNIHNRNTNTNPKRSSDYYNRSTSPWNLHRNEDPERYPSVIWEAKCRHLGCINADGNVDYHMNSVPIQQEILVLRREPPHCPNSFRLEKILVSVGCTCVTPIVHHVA

SMILES: CC[C@H](C)[C@H](NC(=O)[C@H](Cc1c[nH]c2ccccc12)NC(=O)[C@H](CCC(=O)O)NC(=O)[C@H](Cc1ccc(O)cc1)NC(=O)[C@H](CC(C)C)NC(=O)[C@H](CC(=O)O)NC(=O)[C@H](C)NC(=O)[C@@H]1CCCN1C(=O)[C@@H](NC(=O)[C@@H](NC(=O)[C@@H](NC(=O)[C@H](CCSC)NC(=O)[C@@H](NC(=O)[C@@H](C)O[C@H]1[C@H](O[C@@H]2O[C@H](CO)[C@@H](O)[C@H](O)[C@H]2NC(C)=O)[C@@H](CO)OC(O)[C@@H]1NC(C)=O)[C@@H](C)CC)C(C)C)[C@@H](C)O)[C@@H](C)CC)C(=O)N[C@@H](CCC(=O)O)C(=O)N[C@@H](CCC(=O)O)C(N)=O (some centres unmarked) [BIO-3]
- IC50: < 1000 nM

SMILES: CCCCCCCCCC(=O)N[C@H](C(=O)N[C@@H](CCSC)C(=O)N[C@H](C(=O)N[C@H](C(=O)N[C@H](C(=O)N1CCC[C@H]1C(=O)N[C@@H](C)C(=O)N[C@@H](CC(=O)O)C(=O)N[C@@H](CC(C)C)C(=O)N[C@@H](Cc1ccc(O)cc1)C(=O)N[C@@H](CCC(=O)O)C(=O)N[C@@H](Cc1c[nH]c2ccccc12)C(=O)N[C@H](C(=O)N[C@@H](CCC(=O)O)C(=O)N[C@@H](CCC(=O)O)C(N)=O)[C@@H](C)CC)[C@@H](C)CC)[C@@H](C)O)C(C)C)[C@@H](C)CC [BIO-4]
- IC50: < 1000 nM

SMILES: CC[C@H](C)[C@H](NC(=O)[C@@H](NC(=O)[C@@H](NC(=O)[C@H](Cc1c[nH]cn1)NC(=O)[C@@H](NC(C)=O)C(C)C)C(C)C)[C@@H](C)O)C(=O)N1CCC[C@H]1C(=O)N[C@@H](C)C(=O)N[C@@H](CC(N)=O)C(=O)N[C@@H](CC(C)C)C(=O)N[C@@H](Cc1c[nH]c2ccccc12)C(=O)N[C@@H](CCC(=O)O)C(=O)N[C@@H](Cc1c[nH]c2ccccc12)C(=O)N[C@H](C(=O)N[C@@H](CCCNC(=N)N)C(=O)N[C@@H](CCCNC(=N)N)C(N)=O)C(C)C [SEQ ID NO: 116] (Ac-VHVTIPANLWEWVRR-NH2)
- IC50: < 500 nM

SMILES: CC[C@H](C)[C@H](NC(=O)[C@@H](NC(=O)[C@@H](NC(=O)[C@H](Cc1c[nH]cn1)NC(=O)[C@@H](NC(C)=O)C(C)C)C(C)C)[C@@H](C)O)C(=O)N1CCC[C@H]1C(=O)N[C@@H](C)C(=O)N[C@@H](CC(=O)O)C(=O)N[C@@H](Cc1ccccc1)C(=O)N[C@@H](Cc1c[nH]c2ccccc12)C(=O)N[C@@H](CCC(=O)O)C(=O)N[C@@H](Cc1c[nH]c2ccccc12)C(=O)N[C@H](C(=O)N[C@@H](CCCNC(=N)N)C(=O)N[C@@H](CCCNC(=N)N)C(N)=O)C(C)C [SEQ ID NO: 117] (Ac-VHVTIPADFWEWVRR-NH2)
- IC50: < 500 nM

SMILES: CC[C@H](C)[C@H](NC(=O)[C@@H](NC(=O)[C@@H](NC(=O)[C@H](Cc1c[nH]cn1)NC(=O)[C@@H](NC(C)=O)C(C)C)C(C)C)[C@@H](C)O)C(=O)N1CCC[C@H]1C(=O)N[C@@H](C)C(=O)N[C@@H](CC(=O)O)C(=O)N[C@@H](CC(C)C)C(=O)N[C@@H](Cc1ccc(O)cc1)C(=O)N[C@@H](CCC(=O)O)C(=O)N[C@@H](Cc1c[nH]c2ccccc12)C(=O)N[C@H](C(=O)N[C@@H](CCCNC(=N)N)C(=O)N[C@@H](CCCNC(=N)N)C(N)=O)C(C)C [SEQ ID NO: 118] (Ac-VHVTIPADLYEWVRR-NH2)
- IC50: < 500 nM

SMILES: CC[C@H](C)[C@H](NC(=O)[C@@H](NC(=O)[C@@H](NC(=O)[C@H](Cc1c[nH]cn1)NC(=O)[C@@H](NC(C)=O)C(C)C)C(C)C)[C@@H](C)O)C(=O)N1CCC[C@H]1C(=O)N[C@@H](C)C(=O)N[C@@H](CC(=O)O)C(=O)N[C@@H](CC(C)C)C(=O)N[C@@H](Cc1c[nH]c2ccccc12)C(=O)N[C@@H](CC(N)=O)C(=O)N[C@@H](Cc1c[nH]c2ccccc12)C(=O)N[C@H](C(=O)N[C@@H](CCCNC(=N)N)C(=O)N[C@@H](CCCNC(=N)N)C(N)=O)C(C)C [SEQ ID NO: 119] (Ac-VHVTIPADLWNWVRR-NH2)
- IC50: < 500 nM

SMILES: CC[C@H](C)[C@H](NC(=O)[C@@H](NC(=O)[C@@H](NC(=O)[C@H](Cc1c[nH]cn1)NC(=O)[C@@H](NC(C)=O)C(C)C)C(C)C)[C@@H](C)O)C(=O)N1CCC[C@H]1C(=O)N[C@@H](C)C(=O)N[C@@H](CC(=O)O)C(=O)N[C@@H](CC(C)C)C(=O)N[C@@H](Cc1c[nH]c2ccccc12)C(=O)N[C@@H](CCC(=O)O)C(=O)N[C@@H](Cc1ccccc1)C(=O)N[C@H](C(=O)N[C@@H](CCCNC(=N)N)C(=O)N[C@@H](CCCNC(=N)N)C(N)=O)C(C)C [SEQ ID NO: 120] (Ac-VHVTIPADLWEFVRR-NH2)
- IC50: < 500 nM

SMILES: CC[C@H](C)[C@H](NC(=O)[C@H](Cc1ccc(O)cc1)NC(=O)[C@@H](NC(=O)[C@H](Cc1c[nH]cn1)NC(=O)[C@@H](NC(C)=O)C(C)C)C(C)C)C(=O)N1CCC[C@H]1C(=O)N[C@@H](C)C(=O)N[C@@H](CCC(=O)O)C(=O)N[C@@H](CC(C)C)C(=O)N[C@@H](Cc1c[nH]c2ccccc12)C(=O)N[C@@H](CCC(=O)O)C(=O)N[C@@H](Cc1c[nH]c2ccccc12)C(=O)N[C@H](C(=O)N[C@@H](CCCNC(=N)N)C(=O)N[C@@H](CCCNC(=N)N)C(N)=O)C(C)C [SEQ ID NO: 122] (Ac-VHVYIPAELWEWVRR-NH2)
- IC50: < 500 nM

SMILES: CC[C@H](C)[C@H](NC(=O)[C@@H](NC(=O)[C@@H](NC(=O)[C@H](Cc1c[nH]cn1)NC(=O)[C@@H](NC(C)=O)C(C)C)C(C)C)[C@@H](C)O)C(=O)N1CCC[C@H]1C(=O)N[C@@H](C)C(=O)N[C@@H](CCC(=O)O)C(=O)N[C@@H](Cc1c[nH]c2ccccc12)C(=O)N[C@@H](Cc1c[nH]c2ccccc12)C(=O)N[C@@H](CCC(=O)O)C(=O)N[C@@H](Cc1c[nH]c2ccccc12)C(=O)N[C@H](C(=O)N[C@@H](CCCNC(=N)N)C(=O)N[C@@H](CCCNC(=N)N)C(N)=O)C(C)C [SEQ ID NO: 123] (Ac-VHVTIPAEWWEWVRR-NH2)
- IC50: < 500 nM

SMILES: CC(=O)N[C@H](C(=O)N[C@@H](Cc1c[nH]cn1)C(=O)N[C@@H](Cc1ccccc1)C(=O)N[C@H](C(=O)N[C@@H](Cc1ccccc1)C(=O)N1CCC[C@H]1C(=O)N[C@@H](CCC(N)=O)C(=O)N[C@@H](CC(=O)O)C(=O)N[C@@H](CC(C)C)C(=O)N[C@@H](Cc1c[nH]c2ccccc12)C(=O)N[C@@H](CCC(=O)O)C(=O)N[C@@H](Cc1c[nH]c2ccccc12)C(=O)N[C@H](C(=O)N[C@@H](CCCNC(=N)N)C(=O)N[C@@H](CCCNC(=N)N)C(N)=O)C(C)C)[C@@H](C)O)C(C)C [SEQ ID NO: 124] (Ac-VHFTFPQDLWEWVRR-NH2)
- IC50: < 500 nM

SMILES: CC(=O)N[C@H](C(=O)N[C@@H](Cc1c[nH]cn1)C(=O)N[C@@H](Cc1ccccc1)C(=O)N[C@H](C(=O)N[C@@H](Cc1ccccc1)C(=O)N1CCC[C@H]1C(=O)N[C@@H](CCC(N)=O)C(=O)N[C@@H](CC(=O)O)C(=O)N[C@@H](Cc1ccccc1)C(=O)N[C@@H](Cc1c[nH]c2ccccc12)C(=O)N[C@@H](CCC(=O)O)C(=O)N[C@@H](Cc1c[nH]c2ccccc12)C(=O)N[C@H](C(=O)N[C@@H](CCCNC(=N)N)C(=O)N[C@@H](CCCNC(=N)N)C(N)=O)C(C)C)[C@@H](C)O)C(C)C [SEQ ID NO: 125] (Ac-VHFTFPQDFWEWVRR-NH2)
- IC50: < 500 nM

SMILES: CC[C@H](C)[C@H](NC(=O)[C@@H](NC(=O)[C@H](Cc1ccccc1)NC(=O)[C@H](Cc1c[nH]cn1)NC(=O)[C@@H](NC(C)=O)C(C)C)[C@@H](C)O)C(=O)N1CCC[C@H]1C(=O)N[C@@H](CCC(N)=O)C(=O)N[C@@H](CC(=O)O)C(=O)N[C@@H](CC(C)C)C(=O)N[C@@H](Cc1ccc(O)cc1)C(=O)N[C@@H](CCC(=O)O)C(=O)N[C@@H](Cc1c[nH]c2ccccc12)C(=O)N[C@H](C(=O)N[C@@H](CCCNC(=N)N)C(=O)N[C@@H](CCCNC(=N)N)C(N)=O)C(C)C [SEQ ID NO: 126] (Ac-VHFTIPQDLYEWVRR-NH2)
- IC50: < 500 nM

SMILES: CC(=O)N[C@H](C(=O)N[C@@H](Cc1c[nH]cn1)C(=O)N[C@@H](Cc1ccccc1)C(=O)N[C@H](C(=O)N[C@@H](Cc1ccccc1)C(=O)N1CCC[C@H]1C(=O)N[C@@H](CCC(N)=O)C(=O)N[C@@H](CC(=O)O)C(=O)N[C@@H](CC(C)C)C(=O)N[C@@H](Cc1c[nH]c2ccccc12)C(=O)N[C@@H](CC(N)=O)C(=O)N[C@@H](Cc1c[nH]c2ccccc12)C(=O)N[C@H](C(=O)N[C@@H](CCCNC(=N)N)C(=O)N[C@@H](CCCNC(=N)N)C(N)=O)C(C)C)[C@@H](C)O)C(C)C [SEQ ID NO: 127] (Ac-VHFTFPQDLWNWVRR-NH2)
- IC50: < 500 nM

SMILES: CC(=O)N[C@H](C(=O)N[C@@H](Cc1c[nH]cn1)C(=O)N[C@@H](Cc1ccccc1)C(=O)N[C@H](C(=O)N[C@@H](Cc1ccccc1)C(=O)N1CCC[C@H]1C(=O)N[C@@H](CCC(N)=O)C(=O)N[C@@H](CC(=O)O)C(=O)N[C@@H](CC(C)C)C(=O)N[C@@H](Cc1c[nH]c2ccccc12)C(=O)N[C@@H](CCC(=O)O)C(=O)N[C@@H](Cc1ccccc1)C(=O)N[C@H](C(=O)N[C@@H](CCCNC(=N)N)C(=O)N[C@@H](CCCNC(=N)N)C(N)=O)C(C)C)[C@@H](C)O)C(C)C [SEQ ID NO: 128] (Ac-VHFTFPQDLWEFVRR-NH2)
- IC50: < 500 nM

— patent publication US11236129B2, “IL-17A binding peptides and medical uses thereof” (Dompe' Farmaceutici S.P.A., priority 2018, dated 2022)
